Columns and labels:
[1] = molecular target: T1, hURAT1 (Homo sapiens, UniProt Q96S37); assay: Inhibition assay of uric acid transport in HEK293-hURAT1 transfection cell line; assay type: cell-based; settings: 500 nM; HEK293-hURAT1 transfection cell line; 14C-uric acid; average of three tests; 0.5 µM
T1 sequence (Q96S37 1-553): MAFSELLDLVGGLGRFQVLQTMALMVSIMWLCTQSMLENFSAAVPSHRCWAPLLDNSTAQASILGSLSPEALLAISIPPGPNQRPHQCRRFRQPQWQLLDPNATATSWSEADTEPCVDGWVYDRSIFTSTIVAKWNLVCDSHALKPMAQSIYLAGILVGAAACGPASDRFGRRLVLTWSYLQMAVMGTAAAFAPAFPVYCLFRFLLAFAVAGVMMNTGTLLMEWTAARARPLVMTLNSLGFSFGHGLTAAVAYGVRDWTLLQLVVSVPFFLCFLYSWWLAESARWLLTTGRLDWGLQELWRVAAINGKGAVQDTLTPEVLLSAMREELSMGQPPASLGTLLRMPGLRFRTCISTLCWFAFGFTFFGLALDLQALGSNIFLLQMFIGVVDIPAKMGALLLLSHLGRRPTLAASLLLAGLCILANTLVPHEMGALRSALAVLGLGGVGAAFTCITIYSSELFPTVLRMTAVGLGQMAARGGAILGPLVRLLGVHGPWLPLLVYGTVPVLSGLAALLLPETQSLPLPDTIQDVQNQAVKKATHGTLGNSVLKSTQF
Experimental: 2.1 Construction of a HEK293 stable cell line with high expression of hURAT1: The plasmid pCMV6-hURAT1 was transfected into HEK293 cells, then the stable strain was obtained by the G418 (final concentration 500 μg/mL) resistance screening, which is the high expression of hURAT1 transporter membrane protein.
2.2 To a coated 24-well plate was added 200 μL of 0.1 mg/mL poly-lysine per well and the plate was left overnight. Poly-lysine was removed from wells. The wells were cleaned thoroughly with aseptic water and dried for use.
2.3 To the above coated 24 well plate was added HEK293-hURAT1 stable cells (2×10^5 cells per well). The cells was cultured at 37° C. under 5% CO2 for 3 days.
The solution was fully mixed to give HBSS buffer (pH value: 7.4). The buffer was stored at −20° C.
2.5 The HBSS buffer was warmed to 37° C. in a water bath. Washed cells with HBSS twice, added 160 μL of HBSS and 20 μL test compound per well. The final concentration of tested compound per well is 500 nM. The blank control well contains only 180 μL of HBSS without tested compound. The plate was placed at room temperature for 30 min.
2.6 To each well was added 20 μL of 50 μM ^14C-Uric acid. The plate was placed at room temperature for 20 min.
2.7 The solution in each well was removed and the cells in each well were washed with pre-cooled HBSS buffer. To each well was added 0.2 M NaOH to dissolve the cells. The solution containing cell fragments was collected and the right amount of scintillation liquid was added.
The formula for calculating the inhibitory rate of uric acid transport for compounds was shown as below: […]

[2] = system: hyperuricemia mice; assay: Uric acid excretion test in hyperuricemia mice; assay type: in vivo, Kunming mice; settings: 15 mg/kg oral
Experimental: Species: Kingming mice (Clean Level); body weights: 25 to 30 g; ages: 4 to 5 weeks; sex: male. These mice were purchased from Shanghai SLAC Laboratory Animal Co., Ltd. Certificate No.: SCXK (HU) 2012-2002. Animal quality certificate number: 2015000522173.
A certain amount of adenine and yeast extract powder was weighted and a certain amount of double distilled water was added. The mixture was stirred at about 60° C. for 40 min to give a suspension, which the concentration of yeast extract is 0.6 g/mL and the concentration of adenine is 12 mg/mL.
A suspension of 20 mg/mL potassium oxonate was prepared by mixing a certain amount of potassium oxonate with 0.5% CMC-Na solution before use.
Male Kunming mice were randomly divided into four groups: blank control group, model group, compound 74 group, and benzbromarone group. Each group has six mice. All mice fasted 2 to 3 h before use. The model group, benzbromarone group, and compound 74 group were orally given a suspension of yeast extract and adenine prepared above to reach the final dosage of 10 g/kg (body weight) of yeast extract and 200 mg/kg (body weight) of adenine, respectively. The blank control group was only given same volume of normal saline orally. After 2.5 h, all mice in compound 74 group and benzbromarone group were given 10 mL/kg of suspension of compound 74 (1.5 mg/mL) and 10 mL/kg of suspension of benzbromarone (1.5 mg/mL), respectively. The blank control group and model group were orally given same volume of 0.5% CMC-Na solution. All animals were treated in the same way for seven days by using administration methods described above. On the last day, after administration of a suspension of yeast extract and adenine for the model group, compound 74 group, and benzbromarone group, all mice in these three groups were given 12.5 mL/kg of potassium oxonate (20 mg/mL) by i.p. The blank control was only given same volume of 0.5% CMC-Na solution by i.p. After 30 min, compound 74 and benzbromarone were administrated orally to the mice at same dosages as above in compound 74 group and benzbromarone group, respectively. The blank control group and model group were orally given same volume of 0.5% CMC-Na solution.
Collection of urine samples: All mice were placed in metabolic cages with normal diet individually after giving test compounds on the last day. 24 h urine was collected and the urine volume was measured. The urine was centrifugated at 3000 rpm for 20 min and the supernatant was collected.
Detection of the concentration of uric acid of mice urine samples: uric acid concentration in samples was detected by using uric acid assay kit (phosphotungstic acid method) followed the procedures described in the instruction.

CCc1nc2ccccn2c1C(=O)c1cc(Br)c(O)c(C#N)c1 [Compound 74, 3-bromo-5-(2-ethylimidazo[1,2-a]pyridine-3-carbonyl)-2-hydroxybenzonitrile hydrogen chloride]
Inhibitory rates of uric acid transport, ±SD (%) [1]: 62.75 ± 5.73% | uric acid excretion increased compared with the model group ([2]; increase over model group): about 46.77% | Changes of uric acid excretion (compared with model group, %) ([2]; model group set to 100%): 146.77% | Uric acid in urine for 24 h, ±SD ([2]; seven days, 6 mice): 15.69 ± 1.53 mmol
